Measured values from US20040091578A1 (priority 2001, published 2004).

Experiments:
[1] = biological target: T1, NADP-Malate Dehydrogenase (Zea mays, UniProt P15719); test: Activation of chloroplast NADP-malate dehydrogenase by thioredoxin-reduced proteins; format: biochemical, corn; settings: 20 μg protein with DTT-reduced thioredoxin h
T1 construct: were purified from leaves of corn; from tissue; host or cells: corn leaves
Method: (§1) The NADP-MDH, FBPase, NTR and Thioredoxin h assay methods were according to Florencio, F. J. et al. (1988), Arch. Biochem. Biophys. 266:496-507 with slight modifications as indicated. For enzyme activation assays, the preincubation time was 20 min unless specified otherwise.
In one study 20 mM β-mercaptoethanol (β-MET) was used instead of DTT. Following preincubation, NADP-MDH was assayed spectrophoto-metrically.
(§2) The Wada et al., 1981 protocol was used for assaying NADP-malate dehydrogenase and fructose 1,6 bisphosphatase in the presence of thioredoxin and 2S protein. Assays were conducted under conditions in which the amount of added thioredoxin was sufficient to reduce the castor 2S protein but insufficient to activate the target enzyme appreciably. All assays were at 25° C. Unless otherwise indicated, the thioredoxin and NTR used were from E. coli. The 2S protein was monitored during purification by mBBr/SDS-polyacrylamide gel electrophoresis following its reduction by dithiothreitol and E. coli thioredoxin (Crawford et al., 1989; Kobrehel et al., 1991).

glutaredoxin = biological target: T2, glutaredoxin (Escherichia coli, UniProt P68688); test: Reduction by glutaredoxin, mBBr/SDS-PAGE with densitometric scanning; format: biochemical
T2 sequence (P68688 1-85): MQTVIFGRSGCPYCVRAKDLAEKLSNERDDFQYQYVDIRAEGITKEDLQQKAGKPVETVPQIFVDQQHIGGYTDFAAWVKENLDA
Method: Direct reduction of the proteins under study was determined by a modification of the method of Crawford et al. (Crawford, N. A. et al. (1989), Arch. Biochem. Biophys. 271:223-239). The reaction was carried out in 100 mM potassium phosphate buffer, pH 7.1, containing 10 mM EDTA and 16% glycerol in a final volume of 0.1 ml. As indicated, 0.7 μg (0.1 μM) NTR and 1 μg (0.8 μM) thioredoxin (both routinely from E. coli were added to 70 μl of the buffer solution containing 1 mM NADPH and 10 μg (2 to 17 μM) of target protein. When thioredoxin was reduced by dithiothreitol (DTT, 0.5 mM), NADPH and NTR were omitted. Assays with reduced glutathione were performed similarly, but at a final concentration of 1 mM. After incubation for 20 min, 100 nmoles of mBBr were added and the reaction was continued for another 15 min. To stop the reaction and derivatize excess mBBr, 10 μl of 10% SDS and 10 μl of 100 mM β-mercaptoethanol were added and the samples were then applied to the gels. […]
This ability was tested, using glutaredoxin from E. coli and the seed proteins currently under study. Reduction activity was monitored by the mBBr/SDS polyacrylamide gel electrophoresis procedure coupled with densitometric scanning.

Fructose Bisphosphatase = biological target: T3, Fructose Bisphosphatase (Spinacia oleracea, UniProt P22418); test: Activation of chloroplast fructose bisphosphatase by thioredoxin-reduced proteins; format: biochemical, spinach; settings: 20 μg protein, 1 μg E. coli thioredoxin, DTT; corrected for thioredoxin alone
T3 construct: purified from leaves of corn (Jacquot, J.-P. et al. (1981), Plant Physiol. 68:300-304) and spinach; from tissue; host or cells: spinach leaves
T3 sequence (P22418 58-415): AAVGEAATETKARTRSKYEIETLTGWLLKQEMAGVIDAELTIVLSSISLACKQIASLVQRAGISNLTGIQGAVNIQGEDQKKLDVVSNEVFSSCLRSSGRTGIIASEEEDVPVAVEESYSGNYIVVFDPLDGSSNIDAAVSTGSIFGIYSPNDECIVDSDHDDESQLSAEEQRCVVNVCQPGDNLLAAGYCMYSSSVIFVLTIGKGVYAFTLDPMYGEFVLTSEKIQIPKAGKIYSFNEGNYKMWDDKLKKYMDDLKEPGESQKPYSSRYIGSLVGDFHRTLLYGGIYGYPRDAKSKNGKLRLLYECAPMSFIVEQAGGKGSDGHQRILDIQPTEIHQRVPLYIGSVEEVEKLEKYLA
Method: as §1, §2

T1 sequence (P15719 41-432): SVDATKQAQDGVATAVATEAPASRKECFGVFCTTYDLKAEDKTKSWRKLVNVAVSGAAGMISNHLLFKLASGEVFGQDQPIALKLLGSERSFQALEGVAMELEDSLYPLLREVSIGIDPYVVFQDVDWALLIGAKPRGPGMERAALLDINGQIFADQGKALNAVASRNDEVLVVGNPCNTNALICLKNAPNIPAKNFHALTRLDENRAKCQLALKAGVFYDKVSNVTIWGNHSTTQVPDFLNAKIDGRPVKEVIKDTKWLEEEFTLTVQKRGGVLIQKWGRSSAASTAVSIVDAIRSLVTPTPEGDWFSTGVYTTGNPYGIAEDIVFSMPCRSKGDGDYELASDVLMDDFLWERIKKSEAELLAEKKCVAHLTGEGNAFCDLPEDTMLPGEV

Aprotinin [Bovine lung (Aprotinin)]
ACTIVITY, NADP-MDH [1]: Trace
percentage reduction by glutaredoxin relative to E. coli thioredoxin (glutaredoxin): not affected
ACTIVITY, FBPase (Fructose Bisphosphatase): 2 nkat/mg
